According to US20250326772A1, “MRGPRX2 ANTAGONISTS, PHARMACEUTICAL COMPOSITION INCLUDING MRGPRX2 ANTAGONIST, AND METHOD OF TREATING MRGPRX2-MEDIATED DISEASE OR DISORDER” (KYORIN PHARMACEUTICAL CO., LTD., priority 2024, published 2025):

Biological target: T1, MRGPRX2 (Homo sapiens, UniProt Q96LB1)
T1 sequence (Q96LB1 1-330): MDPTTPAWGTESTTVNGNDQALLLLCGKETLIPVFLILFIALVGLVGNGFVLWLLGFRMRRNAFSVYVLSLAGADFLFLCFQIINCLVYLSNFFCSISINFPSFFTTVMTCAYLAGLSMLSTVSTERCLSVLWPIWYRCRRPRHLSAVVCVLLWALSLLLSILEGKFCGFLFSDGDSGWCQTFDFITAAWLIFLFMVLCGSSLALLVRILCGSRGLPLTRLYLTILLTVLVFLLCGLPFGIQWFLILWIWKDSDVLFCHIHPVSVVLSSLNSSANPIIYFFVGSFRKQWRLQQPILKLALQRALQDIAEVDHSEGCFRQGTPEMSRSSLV
Assay: MRGPRX2 reporter cell assay (NFAT-RE luciferase, Substance P stimulation)
Assay type: cell-based
Conditions: U2OS cells stably transfected with MRGPRX2 and NFAT-RE luciferase reporter; Substance P at EC80
Procedure, shortened: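 U2OS cells stably expressing MRGPRX2 and an NFAT-RE luc2P reporter, pre-incubated 30 min at 37° C with compound (0.5% DMSO), then stimulated with Substance P at EC80 for 6 h. Luminescence after ONE-GLO; percent inhibition fitted by four-parameter logistic to IC50.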

IC50 [µM]	SMILES
0.0041	CO[C@]1(C)COc2c(-c3[nH]c4ncccc4c3-c3cn(C)nc3OC(F)F)c(C(F)F)nn2C1 [EX. 435]
0.002	Cn1cc(-c2c(-c3c(C(F)F)nn4c3OC[C@@H](OCC(C)(C)O)C4)[nH]c3ncccc23)c(OC(F)F)n1 [EX. 535]
0.0044	Cn1cc(-c2c(-c3c(C(F)F)nn4c3OC[C@@H](O)C4)[nH]c3ncccc23)c(OC(F)F)n1 [EX. 527, (S)-3-(3-(3-(difluoromethoxy)-1-methyl-1H-pyrazol-4-yl)-1H-pyrrolo[2,3-b]pyridin-2-yl)-2-(difluoromethyl)-6,7-dihydro-5H-pyrazolo[5,1-b] [1,3]oxazin-6-ol]

Same assay, conditions: U2OS cells stably transfected with MRGPRX2 and NFAT-RE luciferase reporter; Substance P at EC80; class symbols

SMILES	IC50 [µM]
Cn1cc(-c2c(-c3c(C(F)F)nn4c3OC[C@@H](NC(=O)C3(O)CC3)C4)[nH]c3ncccc23)c(OC(F)F)n1 [EX. 589]	< 0.01
CO[C@]1(C)COc2c(-c3[nH]c4ncccc4c3-c3cc(C)sc3C#N)c(C(F)F)nn2C1 [EX. 486, (S)-3-(2-(2-(difluoromethyl)-6-methoxy-6-methyl-6,7-dihydro-5H-pyrazolo[5,1-b] [1,3]oxazin-3-yl)-1H-pyrrolo[2,3-b]pyridin-3-yl)-5-methylthiophene-2-carbonitrile]	< 0.01
COc1ccc(C#N)c(-c2c(-c3c(C(F)F)nn4c3OC[C@H](O)C4)[nH]c3ncccc23)c1 [EX. 368]	< 0.01
Cn1cc(-c2c(-c3c(C(F)F)nn4c3OC[C@@H](NC(=O)[C@H]3C[C@H](O)C3)C4)[nH]c3ncccc23)c(OC(F)F)n1 [EX. 565]	< 0.01
COc1ncc(F)cc1-c1c(-c2c(C(F)F)nn3c2OCCC3)[nH]c2ncccc12 [EX. 431]	< 0.01
Cn1cc(-c2c(-c3c(C(F)F)nn4c3OC[C@@H](N)C4)[nH]c3ncccc23)c(OC(F)F)n1 [EX. 543]	< 0.01
Cc1cc(-c2c(-c3c(C(F)F)nn4c3OC[C@@H](F)C4)[nH]c3ncccc23)c(Cl)s1 [EX. 436]	< 0.01
[2H]c1cnc2[nH]c(-c3cn(C)nc3C(F)F)c(-c3cc(OC([2H])([2H])[2H])ccc3C#N)c2c1 [EX. 89]	< 0.01
[2H]C([2H])([2H])Oc1ccc(C#N)c(-c2c(-c3c(CC)nn4c3OCCC4)[nH]c3ncccc23)c1 [EX. 200]	< 0.01
COc1ncc(F)cc1-c1c(-c2c(C(F)F)nn3c2OC[C@@H](O)C3)[nH]c2ncccc12 [EX. 476]	< 0.01
O[C@@H]1COc2c(-c3[nH]c4ncccc4c3-c3ccccc3OC(F)F)c(C(F)F)nn2C1 [EX. 469]	< 0.01
COCCO[C@@H]1COc2c(-c3[nH]c4ncccc4c3-c3cn(C)nc3OC(F)F)c(C(F)F)nn2C1 [EX. 533]	< 0.01
Cc1nn2c(c1-c1[nH]c3ncccc3c1-c1cccnc1OC(F)F)OC[C@@H](O)C2 [EX. 496]	< 0.01
Cn1cc(-c2c(-c3c(C(F)F)nn4c3OC[C@@H](NC(=O)[C@H]3C[C@@H](O)C3)C4)[nH]c3ncccc23)c(OC(F)F)n1 [EX. 564]	< 0.01
N#Cc1ccccc1-c1c(-c2ccccc2OCc2ccccc2)[nH]c2ncccc12 [EX. 109]	< 0.01
CO[C@@H]1COc2c(-c3[nH]c4ncccc4c3-c3cccnc3OC(F)F)c(C)nn2C1 [EX. 497]	< 0.01
O[C@@H]1COc2c(-c3[nH]c4ncccc4c3-c3cc(F)ccc3OC(F)F)c(C(F)F)nn2C1 [EX. 468]	< 0.01
Cc1nn2c(c1-c1[nH]c3ncccc3c1-c1cn(C)nc1OC(F)F)OC[C@@H](OCCO)C2 [EX. 542]	< 0.01
N#Cc1ccccc1-c1c(-c2c(C(F)F)nn3c2OC[C@H](O)C3)[nH]c2ncccc12 [EX. 371]	< 0.01
COc1ccc(C#N)c(-c2c(-c3cc(F)ccc3OC)[nH]c3ncccc23)c1 [EX. 107, 2-(2-(5-fluoro-2-methoxyphenyl)-1H-pyrrolo[2,3-b]pyridin-3-yl)-4-methoxybenzonitrile]	< 0.01
Cn1cc(-c2c(-c3c(C(F)F)nn4c3OC[C@@H](OCC(C)(C)O)C4)[nH]c3ncccc23)c(OC(F)F)n1 [EX. 535]	< 0.01
[2H]C([2H])([2H])Oc1ccc(C#N)c(-c2c(-c3c(C)nn4cc(OC)cnc34)[nH]c3ncccc23)c1 [EX. 179]	< 0.01
Cn1cc(-c2c(-c3c(C(F)F)nn4c3OC[C@@H](NS(C)(=O)=O)C4)[nH]c3ncsc23)c(OC(F)F)n1 [EX. 520, (S)—N-(3-(6-(3-(difluoromethoxy)-1-methyl-1H-pyrazol-4-yl)-4H-pyrrolo[2,3-d]thiazol-5-yl)-2-(difluoromethyl)-6,7-dihydro-5H-pyrazolo[5,1-b] [1,3]oxazin-6-yl) methanesulfonamide]	< 0.01
COc1ccc(C#N)c(-c2c(-c3nn(C)cc3C(F)F)[nH]c3ncccc23)c1 [EX. 281]	< 0.01
CO[C@@H]1COc2c(-c3[nH]c4ncccc4c3-c3cn(C)nc3OC(F)F)c(C)nn2C1 [EX. 541]	< 0.01
Cn1cc(-c2c(-c3c(C(F)F)nn4c3OC[C@@H](NC(=O)CC(C)(C)O)C4)[nH]c3ncccc23)c(OC(F)F)n1 [EX. 586, (S)—N-(3-(3-(3-(difluoromethoxy)-1-methyl-1H-pyrazol-4-yl)-1H-pyrrolo[2,3-b]pyridin-2-yl)-2-(difluoromethyl)-6,7-dihydro-5H-pyrazolo[5,1-b] [1,3]oxazin-6-yl)-3-hydroxy-3-methylbutanamide]	< 0.01
COc1ccc(C#N)c(-c2c(-c3c(C)nn4c3OCC(NC(=O)OC(C)(C)C)C4)[nH]c3ncccc23)c1 (stereo not shown) [EX. 256]	< 0.01

Further lines, results first:

IC50 [µM]	SMILES
< 0.01	Cn1cc(-c2c(-c3c(C4CC4)nn4c3OC[C@@H](NS(C)(=O)=O)C4)[nH]c3ncccc23)c(OC(F)F)n1 [EX. 484]
< 0.01	Cn1cc(-c2c(-c3c(C(F)F)nn4c3OC[C@@H](NS(=O)(=O)CCO)C4)[nH]c3ncccc23)c(OC(F)F)n1 [EX. 577]
< 0.01	COC(=O)CO[C@@H]1COc2c(-c3[nH]c4ncccc4c3-c3cn(C)nc3OC(F)F)c(C(F)F)nn2C1 [EX. 530]
< 0.01	CC(C)(O)CO[C@@H]1COc2c(-c3[nH]c4ncccc4c3-c3cccnc3C#N)c(C(F)F)nn2C1 [EX. 509]
< 0.01	O[C@@H]1COc2c(-c3[nH]c4ncccc4c3-c3cccnc3OC(F)F)c(C(F)F)nn2C1 [EX. 454]
< 0.01	N#Cc1ccccc1-c1c(-c2cnn3c2OCCC3)[nH]c2ncccc12 [EX. 50]
< 0.01	N#Cc1ccccc1-c1c(-c2cc(F)ccc2O)[nH]c2ncccc12 [EX. 54]
< 0.01	COc1ccc(C#N)c(-c2c(-c3c(C(F)F)nn4c3OC[C@@H](NC(C)=O)C4)[nH]c3ncccc23)c1 [EX. 364]
< 0.01	C[C@@]1(N)COc2c(-c3[nH]c4ncccc4c3-c3cccnc3OC(F)F)c(C(F)F)nn2C1 [EX. 490]
< 0.01	[2H]C([2H])([2H])Oc1ccc(C#N)c(-c2c(-c3c(C)nn4c3OC(C)C4)[nH]c3ncccc23)c1 (stereo not shown) [EX. 167]
< 0.01	COC(=O)N[C@@H]1COc2c(-c3[nH]c4ncccc4c3-c3ccncc3C#N)c(C(F)F)nn2C1 [EX. 515]
< 0.01	N#Cc1ncccc1-c1c(-c2c(C(F)F)nn3c2OC[C@@H](NC(=O)C2CC2)C3)[nH]c2ncccc12 [EX. 591]
< 0.01	FC(F)Oc1ccccc1-c1c(-c2c(C(F)F)nn3c2OC[C@@H](F)C3)[nH]c2ncccc12 [EX. 444]
< 0.01	N#Cc1ncccc1-c1c(-c2c(C(F)F)nn3c2OC[C@@H](OCCO)C3)[nH]c2ncccc12 [EX. 508]
< 0.01	CO[C@@H]1COc2c(-c3[nH]c4ncccc4c3-c3cc(C)sc3C#N)c(C(F)F)nn2C1 [EX. 506]
< 0.01	[2H]C([2H])([2H])Oc1ccc(C#N)c(-c2c(-c3c(C)nn4c3OC[C@@H](O)C4)[nH]c3ncccc23)c1 [EX. 366, 2-[2-[(6S)-6-hydroxy-2-methyl-6,7-dihydro-5H-pyrazolo[5,1-b] [1,3]oxazin-3-yl]-1H-pyrrolo[2,3-b]pyridin-3-yl]-4-(trideuteriomethoxy)benzonitrile]

IC50 [µM]	SMILES
< 0.01	CS(=O)(=O)N[C@@H]1COc2c(-c3[nH]c4ncccc4c3-c3cccnc3OC(F)F)c(C(F)F)nn2C1 [EX. 521]
< 0.01	CO[C@]1(C)COc2c(-c3[nH]c4ncccc4c3-c3cccnc3OC(F)F)c(C(F)F)nn2C1 [EX. 439]
< 0.01	CO[C@]1(C)COc2c(-c3[nH]c4ncccc4c3-c3cn(C)nc3OC(F)F)c(C(F)F)nn2C1 [EX. 435]
< 0.01	Cn1cc(-c2c(-c3c(C(F)F)nn4c3OC[C@@](C)(O)C4)[nH]c3ncccc23)c(OC(F)F)n1 [EX. 481]
< 0.01	Cc1cc(-c2c(-c3c(C(F)F)nn4c3OC[C@@](C)(O)C4)[nH]c3ncccc23)c(C#N)s1 [EX. 451]
< 0.01	Cc1cc(-c2c(-c3c(C(F)F)nn4c3OCCCC4)[nH]c3ncccc23)c(C#N)s1 [EX. 452]
< 0.01	Cn1cc(-c2c(-c3c(C(F)F)nn4c3OC[C@@H](OCCO)C4)[nH]c3ncccc23)c(C#N)n1 [EX. 500]
< 0.01	Cn1cc(-c2c(-c3c(C(F)F)nn4c3OC[C@@H](NC(=O)N3CC(O)C3)C4)[nH]c3ncccc23)c(OC(F)F)n1 [EX. 569]
< 0.01	Cc1nn2c(c1-c1[nH]c3ncccc3c1-c1cn(C)nc1OC(F)F)OC[C@@H](NS(C)(=O)=O)C2 [EX. 547]
< 0.01	[2H]C([2H])([2H])Oc1ccc(F)cc1-c1[nH]c2ncccc2c1-c1ccccc1C#N [EX. 346]
< 0.01	Cn1cc(-c2c(-c3c(C(F)F)nn4c3OC[C@@H](NC(=O)C3CC(F)(F)C3)C4)[nH]c3ncccc23)c(OC(F)F)n1 [EX. 554]
< 0.01	Cn1cc(-c2c(-c3c(C(F)F)nn4c3OC[C@@H](O)C4)[nH]c3ncccc23)c(OC(F)F)n1 [EX. 527, (S)-3-(3-(3-(difluoromethoxy)-1-methyl-1H-pyrazol-4-yl)-1H-pyrrolo[2,3-b]pyridin-2-yl)-2-(difluoromethyl)-6,7-dihydro-5H-pyrazolo[5,1-b] [1,3]oxazin-6-ol]
< 0.01	Cc1cc(-c2c(-c3c(C)nn4c3OC[C@@H](O)C4)[nH]c3ncccc23)c(C#N)s1 [EX. 459]
< 0.01	COc1ccc(C#N)c(-c2c(-c3c(C(F)F)nn4c3OCCC4)[nH]c3ncccc23)c1 [EX. 242]
< 0.01	N#Cc1ccccc1-c1c(-c2cn[nH]c2C(F)F)[nH]c2nccc(F)c12 [EX. 81]
